Experimental data reported in patent publication US10870925B2, “Arrays” (SENGENICS CORPORATION PTE LTD, priority 2001, dated 2020).
Values belong to the molecule of their own block, whether it stands above or below them.

Assays:
[1] = tested on: GADD45 promoter element DNA; assay: Quantitative DNA binding on the p53 protein microarray (33P-labelled duplex DNA); details: 33P GADD45 duplex DNA; for DNA binding Bmax (% wild-type) / Kd: room temperature 30 min, confidence limits in parentheses; for GADD45 DNA binding, in words: p53 microarray
[2] = target: T1, cytochrome P450 3A4 (Homo sapiens, UniProt P08684); assay: BzRes oxidation and ketoconazole inhibition, cytochrome P450 3A4 microsomes in solution and encapsulated in agarose; assay type: biochemical; details: standard error in parentheses
T1 construct: host or cells: microsomes
T1 sequence (P08684 whole entry): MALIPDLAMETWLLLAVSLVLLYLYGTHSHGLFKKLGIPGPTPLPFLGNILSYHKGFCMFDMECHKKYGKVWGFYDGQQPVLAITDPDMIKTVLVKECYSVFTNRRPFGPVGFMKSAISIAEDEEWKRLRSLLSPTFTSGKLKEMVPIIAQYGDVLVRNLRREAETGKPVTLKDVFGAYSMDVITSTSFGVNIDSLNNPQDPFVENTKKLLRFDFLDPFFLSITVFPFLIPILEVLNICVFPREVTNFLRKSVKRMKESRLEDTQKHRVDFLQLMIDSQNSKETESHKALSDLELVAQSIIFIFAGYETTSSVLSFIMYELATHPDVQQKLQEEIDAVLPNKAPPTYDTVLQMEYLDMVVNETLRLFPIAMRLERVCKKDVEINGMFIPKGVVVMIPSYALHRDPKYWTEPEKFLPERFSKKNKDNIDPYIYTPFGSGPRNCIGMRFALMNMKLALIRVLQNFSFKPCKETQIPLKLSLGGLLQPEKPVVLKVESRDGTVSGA

[3] = target: T2, 3A4*WT (Homo sapiens, UniProt P08684); assay: BzRes turnover and ketoconazole inhibition, cumene hydrogen peroxide activated purified P450 3A4 isoform; assay type: biochemical; details: standard error in parentheses
T2 construct: His-tag (concluded from Ni-NTA / Talon purification); biotinylated tag (BCCP; concluded from streptavidin detection); made in house; host or cells: E. coli XL-10 gold
T2 sequence (P08684 whole entry, canonical isoform): as the sequence (P08684 whole entry) above

[4] = target: T3, 3A4*2 (Homo sapiens, UniProt P08684, S222P); assay: as above; assay type: biochemical; details: standard error in parentheses
T3 construct: His-tag (concluded from Ni-NTA / Talon purification); biotinylated tag (BCCP; concluded from streptavidin detection); made in house; host or cells: E. coli XL-10 gold
T3 sequence (P08684 whole entry S222P): as the sequence (P08684 whole entry) above, with S222P counted along it

[5] = target: T4, 3A4*3 (Homo sapiens, UniProt P08684, M445T); assay: as above; assay type: biochemical; details: standard error in parentheses
T4 construct: His-tag (concluded from Ni-NTA / Talon purification); biotinylated tag (BCCP; concluded from streptavidin detection); made in house; host or cells: E. coli XL-10 gold
T4 sequence (P08684 whole entry M445T): as the sequence (P08684 whole entry) above, with M445T counted along it

[6] = target: T5, 3A4*4 (Homo sapiens, UniProt P08684, I118V); assay: as above; assay type: biochemical; details: standard error in parentheses
T5 construct: His-tag (concluded from Ni-NTA / Talon purification); biotinylated tag (BCCP; concluded from streptavidin detection); made in house; host or cells: E. coli XL-10 gold
T5 sequence (P08684 whole entry I118V): as the sequence (P08684 whole entry) above, with I118V counted along it

[7] = target: T6, 3A4*5 (Homo sapiens, UniProt P08684, P218R); assay: as above; assay type: biochemical; details: standard error in parentheses
T6 construct: His-tag (concluded from Ni-NTA / Talon purification); biotinylated tag (BCCP; concluded from streptavidin detection); made in house; host or cells: E. coli XL-10 gold
T6 sequence (P08684 whole entry P218R): as the sequence (P08684 whole entry) above, with P218R counted along it

[8] = target: 3A4*15 (Homo sapiens, UniProt P08684, R162Q); assay: as above
Sequence of 3A4*15 (P08684 whole entry R162Q): as the sequence (P08684 whole entry) above, with R162Q counted along it

[9] = Gel encapsulated (agarose) microsomes
[10] = 200 μM cumene hydrogen peroxide
[11] = normalised for P450 concentration and scaled to wild-type

Molecule: G325V: p53 mutant protein, His- and biotin-tagged, E. coli expressed [Mutation G325V]
DNA binding Bmax (% wild-type) [1]: 73 (67-79) % wild-type
Kd [1]: 7 nM
GADD45 DNA binding, in words [1]: near wild-type affinity

Molecule: R181C: p53 mutant protein, His- and biotin-tagged, E. coli expressed [Mutation R181C]
DNA binding Bmax (% wild-type) [1]: 88 (81-95) % wild-type
Kd [1]: 11 nM
GADD45 DNA binding, in words [1]: wild-type binding

Molecule: O=c1ccc2nc3ccc(OCc4ccccc4)cc3oc-2c1 [BzRes, resorufin benzyl ether]
BzRes Oxidation Vmax (% of soluble) [2, 9]: 50 (6) % of soluble
Km [2, 9]: 49 µM
BzRes Oxidation Vmax (% of soluble) ([2]; Soluble microsomes): 100 (6) % of soluble
Km ([2]; Soluble microsomes): 20 µM
Km [3, 10]: 104 µM
Vmax BzRes [3, 11]: 100 (34)
Km [4, 10]: 62 µM
Vmax BzRes [4, 11]: 65 (9)
Km [5, 10]: 54 µM
Vmax BzRes [5, 11]: 93 (24)
Km [6, 10]: 111 µM
Vmax BzRes [6, 11]: 69 (22)
Km [7, 10]: 101 µM
Vmax BzRes [7, 11]: 59 (16)
Vmax BzRes ([8]; normalised for P450 concentration and scaled to wild-type, standard error in parentheses): 111 (23)
Km ([8]; read-out: KM BzRes, 200 μM cumene hydrogen peroxide, standard error in parentheses): 89 µM

Molecule: S392A: p53 mutant protein, His- and biotin-tagged, E. coli expressed [Mutation S392A]
DNA binding Bmax (% wild-type) [1]: 121 (107-136) % wild-type
Kd [1]: 10 nM

More lines, now with the values ahead:

DNA binding Bmax (% wild-type) [1]: 48 (40-57) % wild-type
Kd [1]: 11 nM
GADD45 DNA binding, in words [1]: wild-type binding
Molecule: R181H: p53 mutant protein, His- and biotin-tagged, E. coli expressed [Mutation R181H]

DNA binding Bmax (% wild-type) [1]: 54 (40-70) % wild-type
Kd [1]: 21 nM
Molecule: R280K: p53 mutant protein, His- and biotin-tagged, E. coli expressed [Mutation R280K]
